Measurements published in the supplement of paper PMC11208160.

assay: recombinant UMI read abundance after kanamycin selection (control-corrected) (log10(CPM+1)); higher = more efficient recombination; extreme values may be limits of the assay; sequences stand for … in AGTGCAGAGAAAATCGGCCAGTTTTCTCTGCCTGCAGTCCGCATGCCGTGGGACCCCTTGGGTTCTAACCTGTTGCCTAGATTTATGCAGCGGACTGCCTTTCTCCCAAAGTGATAAACCGG…AGGTTGGTTTCACT; site = the 11-nt donor
Procedure, shortened: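 Under IPTG (0.07 mM) plus kanamycin, or without selection, Escherichia coli carrying a UMI-tagged donor and donor-binding-loop pair library and a target plasmid for the IS621 bridge recombinase were plated in two replicates. Recombinant UMIs were PCR-amplified across the donor–target junction and sequenced. Counts were converted to CPM, averaged over replicates, scaled by control-derived factors and reported as log10(CPM+1).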
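Also: IS621 bridge recombinase in Escherichia coli cells against a fixed T5 target plasmid.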

Sequence	recombinant UMI read abundance (log10)
CGGCGTGCATGGACCGGTTTTCCCGGTAATCCGTATTTGAC (site CGGCGTGCTGT)	2.82
CGGCTTCCATGGACCGGTTTTCCCGGTAATCCGTATTTGGA (site CGGCTTCCTTC)	0.00516
CGGCTTGCATGGACCGGTTTTCCCGGTAATCCGTATTTGCC (site CGGCTTGCTGG)	0.904
CGGGAAACATGGACCGGTTTTCCCGGTAATCCGTATTTGCA (site CAGGAAACTTG)	2
CGGGAAACATGGACCGGTTTTCCCGGTAATCCGTATTTGCA (site CCGGAAACTTG)	1.45
CGGGAAACATGGACCGGTTTTCCCGGTAATCCGTATTTGCA (site CGGGAAACTTG)	0.914
CGGGAAACATGGACCGGTTTTCCCGGTAATCCGTATTTGCA (site CTGGAAACTTG)	1.04
CGGGAACCATGGACCGGTTTTCCCGGTAATCCGTATTTGCT (site CGGGAACCTAA)	0
CGGGAACCATGGACCGGTTTTCCCGGTAATCCGTATTTGCT (site CGGGAACCTAC)	0
CGGGAACCATGGACCGGTTTTCCCGGTAATCCGTATTTGCT (site CGGGAACCTAG)	0
CGGGAACCATGGACCGGTTTTCCCGGTAATCCGTATTTGCT (site CGGGAACCTAT)	0
CGGGAGCCATGGACCGGTTTTCCCGGTAATCCGTATTTGAT (site CGGGAACCTAT)	0
CGGGAGCCATGGACCGGTTTTCCCGGTAATCCGTATTTGAT (site CGGGACCCTAT)	0.00515
CGGGAGCCATGGACCGGTTTTCCCGGTAATCCGTATTTGAT (site CGGGAGCCTAT)	0.266
CGGGAGCCATGGACCGGTTTTCCCGGTAATCCGTATTTGAT (site CGGGATCCTAT)	0.0423
CGGGAGTCATGGACCGGTTTTCCCGGTAATCCGTATTTGCT (site CGGGAGTCTAG)	2.6
CGGGAGTCATGGACCGGTTTTCCCGGTAATCCGTATTTGCT (site CGGGAGTCTCG)	2.06
CGGGAGTCATGGACCGGTTTTCCCGGTAATCCGTATTTGCT (site CGGGAGTCTGG)	2.26
CGGGAGTCATGGACCGGTTTTCCCGGTAATCCGTATTTGCT (site CGGGAGTCTTG)	1.47
CGGGAGTCATGGACCGGTTTTCCCGGTAATCCGTATTTGTC (site CGGGAGTCTGA)	3.19
CGGGAGTCATGGACCGGTTTTCCCGGTAATCCGTATTTGTC (site CGGGAGTCTGC)	1.37
CGGGAGTCATGGACCGGTTTTCCCGGTAATCCGTATTTGTC (site CGGGAGTCTGG)	2.03
CGGGAGTCATGGACCGGTTTTCCCGGTAATCCGTATTTGTC (site CGGGAGTCTGT)	1.9

Sequence	recombinant UMI read abundance (log10)
CGGGCAGCATGGACCGGTTTTCCCGGTAATCCGTATTTGTC (site CGGGCAGCTGA)	1.93
CGGGCCTCATGGACCGGTTTTCCCGGTAATCCGTATTTGTT (site CGGGCCTCTAA)	2.54
CGGGGGTCATGGACCGGTTTTCCCGGTAATCCGTATTTGCC (site CGGGAGTCTGG)	0.865
CGGGGGTCATGGACCGGTTTTCCCGGTAATCCGTATTTGCC (site CGGGCGTCTGG)	1.7
CGGGGGTCATGGACCGGTTTTCCCGGTAATCCGTATTTGCC (site CGGGGGTCTGG)	1.86
CGGGGGTCATGGACCGGTTTTCCCGGTAATCCGTATTTGCC (site CGGGTGTCTGG)	0.6
CGGGTACCATGGACCGGTTTTCCCGGTAATCCGTATTTGAT (site CGGGAACCTAT)	0
CGGGTACCATGGACCGGTTTTCCCGGTAATCCGTATTTGAT (site CGGGCACCTAT)	0
CGGGTACCATGGACCGGTTTTCCCGGTAATCCGTATTTGAT (site CGGGGACCTAT)	0
CGGGTACCATGGACCGGTTTTCCCGGTAATCCGTATTTGAT (site CGGGTACCTAT)	0.00441
CGGGTGTCATGGACCGGTTTTCCCGGTAATCCGTATTTGTT (site CGGGTGTCTAA)	3.07
CGGGTTGCATGGACCGGTTTTCCCGGTAATCCGTATTTGAG (site CGGGTTGCTCT)	1.79
CGGTACTCATGGACCGGTTTTCCCGGTAATCCGTATTTGGC (site CGGTACTCTGC)	3.19
CGGTAGCCATGGACCGGTTTTCCCGGTAATCCGTATTTGTT (site CGGAATCCTAA)	0.00596
CGGTAGCCATGGACCGGTTTTCCCGGTAATCCGTATTTGTT (site CGGTAGCCTAA)	0.237
CGGTCATCATGGACCGGTTTTCCCGGTAATCCGTATTTGCT (site CGATCATCTAG)	1.07
CGGTCATCATGGACCGGTTTTCCCGGTAATCCGTATTTGCT (site CGCTCATCTAG)	0
CGGTCATCATGGACCGGTTTTCCCGGTAATCCGTATTTGCT (site CGGACATCTAG)	0
CGGTCATCATGGACCGGTTTTCCCGGTAATCCGTATTTGCT (site CGGCCATCTAG)	2.29
CGGTCATCATGGACCGGTTTTCCCGGTAATCCGTATTTGCT (site CGGGCATCTAG)	0
CGGTCATCATGGACCGGTTTTCCCGGTAATCCGTATTTGCT (site CGGTCATCTAG)	1.7
CGGTCATCATGGACCGGTTTTCCCGGTAATCCGTATTTGCT (site CGTTCATCTAG)	0.224
CGGTCCGCATGGACCGGTTTTCCCGGTAATCCGTATTTGCG (site CGGTCCGCTCG)	0.155

Sequence	recombinant UMI read abundance (log10)
CGGTCTTCATGGACCGGTTTTCCCGGTAATCCGTATTTGCT (site CGATCATCTAG)	0
CGGTCTTCATGGACCGGTTTTCCCGGTAATCCGTATTTGCT (site CGGTCTTCTAG)	1.49
CGGTGAGCATGGACCGGTTTTCCCGGTAATCCGTATTTGGA (site CGGTGAGCTTC)	1.56
CGGTGGACATGGACCGGTTTTCCCGGTAATCCGTATTTGGG (site CGGTGGACTCC)	0.024
CGTAACCCATGGACCGGTTTTCCCGGTAATCCGTATTTGGC (site CGTAACCCTGC)	0.629
CGTAACTCATGGACCGGTTTTCCCGGTAATCCGTATTTGTA (site CGTAACTCTTA)	2.2
CGTAAGACATGGACCGGTTTTCCCGGTAATCCGTATTTGCA (site AGGAAGACTTG)	0
CGTAAGACATGGACCGGTTTTCCCGGTAATCCGTATTTGCA (site CGTAAGACTTG)	2.68
CGTAATACATGGACCGGTTTTCCCGGTAATCCGTATTTGGC (site CATAATACTGC)	0
CGTAATACATGGACCGGTTTTCCCGGTAATCCGTATTTGGC (site CCTAATACTGC)	0
CGTAATACATGGACCGGTTTTCCCGGTAATCCGTATTTGGC (site CGTAATACTGC)	1.22
CGTAATACATGGACCGGTTTTCCCGGTAATCCGTATTTGGC (site CTTAATACTGC)	0
CGTAATACATGGACCGGTTTTCCCGGTAATCCGTATTTGTT (site CGGAATCCTAA)	0
CGTAATACATGGACCGGTTTTCCCGGTAATCCGTATTTGTT (site CGTAATACTAA)	0.809
CGTATAACATGGACCGGTTTTCCCGGTAATCCGTATTTGAT (site CGTATAACTAT)	0.94
CGTCATGCATGGACCGGTTTTCCCGGTAATCCGTATTTGAC (site CGTCATGCTGT)	1.2
CGTCTTTCATGGACCGGTTTTCCCGGTAATCCGTATTTGCA (site CGTCTTTCTTG)	0
CGTGAAACATGGACCGGTTTTCCCGGTAATCCGTATTTGTT (site CGTGAAACTAA)	1.61
CGTGAAACATGGACCGGTTTTCCCGGTAATCCGTATTTGTT (site CGTGCAACTAA)	0
CGTGAAACATGGACCGGTTTTCCCGGTAATCCGTATTTGTT (site CGTGGAACTAA)	0
CGTGAAACATGGACCGGTTTTCCCGGTAATCCGTATTTGTT (site CGTGTAACTAA)	0.0209
CGTGAGGCATGGACCGGTTTTCCCGGTAATCCGTATTTGCC (site CGTGAGGCTGG)	0.525
